Reference: patent US11612163B2, “Stabilization of whole blood samples” (The General Hospital Corporation, priority 2014, dated 2023)
“Also recorded” adds a separate entry of the source.

Tests used:
Type in all cases: cell-based, human
neutrophils [1] = experiment: Apoptosis/necrosis inhibitors as preservatives of isolated neutrophils
Experimental: Evaluation of apoptosis and necrosis inhibitors as neutrophil preservatives. Neutrophils were isolated by negative selection from healthy donor whole blood using the recommended protocol and reagents from the Human Neutrophil Enrichment Kit (StemCell Technologies; Vancouver, British Columbia, Canada). Yield was determined by counting particles from 8-30 μm in diameter using a Coulter Counter Z1 (Beckman Coulter; Brea, Calif.). Neutrophils were stored in IMDM+20% FBS and were either untreated (control) or treated with 1.25 μL/mL DMSO (Sigma-Aldrich; St. Louis, Mo.), 5 μM Q-VD-OPh (Apex Bio; Houston, Tex.), 50 μM Necrostatin-1 (Cayman Chemical; Ann Arbor, Mich.), or 50 μM Boc-D-FMK Apex Bio; Houston, Tex.). Matched samples were processed immediately after isolation and after 24, 48, 72, and 96 hours of storage at 21° C. Samples were stained with R-phycoerythrin-conjugated Annexin V, SYTOX Green, Hoechst 33342 (all Life Technologies; Carlsbad, Calif.), and allophycocyanin-conjugated CD45 (Huntington Valley) and imaged using an ImageStream^X Mk. II Imaging Flow Cytometer (Amnis Corporation; Seattle, Wash.).

neutrophils [2] = experiment: Neutrophil migration toward fMLP gradient (microfluidic device)
Experimental: To determine whether neutrophils stored under these conditions were still capable of migrating toward an fMLP gradient, we utilized a microfluidic device previously developed for this purpose. Briefly, fMLP, a neutrophil chemoattractant, is added to two outer chambers. The outer chambers are connected to an inner chamber through a series of channels, creating a gradient. The inner chamber was then filled with neutrophils. Freshly isolated neutrophils were immediately evaluated to establish a time 0 migratory response, then the preserved neutrophils were examined after 72 and 96 h ambient storage for comparison.

platelets = experiment: Platelet activation surface markers by imaging flow cytometry; conditions: dosages 0.01-0.5 ug/mL, 20 min at 4 or 22° C.
Experimental: Platelet inhibitors used include: Tirofiban (Sigma), Eptifibatide (Tocris), Clopidogrel (Sigma), KF38789 (Tocris). In all experimental conditions that involved treatment with platelet inhibitors (e.g., tirofiban, eptifibatide, etc.), these compounds were added to blood samples and mixed by gentle rocking for 10 minutes before the sample was processed for other assays or storage. The addition of EDTA, unless otherwise stated, occurred 15 minutes prior to the assay (i.e., EDTA was not present during sample storage).
Platelet activation and cell viability were determined using the Image Stream Mark II imaging flow cytometer (Amnis Corporation) equipped with a 40× objective and the 405, 488, 642 nm lasers. For the platelet activation panel, 1 μl of whole blood was combined with PBS and fluorescently labeled antibodies as follows; Pacific Blue conjugated CD41 (1:150; clone HIP8; BioLegend), FITC conjugated PAC-1 (1:10; clone PAC-1 (RUO (GMP)); BD Pharmingen), PE conjugated CD62P (1:100; clone AK-4; BD Pharmingen), APC conjugated CD63 (1:10; clone H5C6; Biolegend), PE/Cy7 conjugated CD45 (1:100; clone HI30; Abcam). […]

neutrophil elastase = experiment: Quantification of neutrophil elastase (NETosis); conditions: fresh whole blood stimulated, positive control for NETs, n=7
Experimental: Blood samples were mixed gently, warmed to 37° C. for four hours for the release of NETs contents into the plasma, and diluted with PBS to a final blood volume fraction of 25% before centrifugation at 2000×g for 5 minutes. The supernatant was then carefully transferred to a new centrifuge tube and stored at −80° C. for further processing. The level of neutrophil elastase was quantified using the Neutrophil Elastase Activity Assay Kit (Cayman Chemical Company) according to manufacturer's protocol, using a SpectraMax M5 spectrometer (Molecular Devices). As a positive control for NETosis, phorbol myristate acetate (100 nM) was added to fresh whole blood prior to incubation.

Q: Which “CD45 biomarker expression of neutrophils” value (neutrophils [1]; 5 μM, 96 h ambient storage) does the source give for `CC(C)[C@H](NC(=O)c1ccc2ccccc2n1)C(=O)N[C@@H](CC(=O)O)C(=O)COc1c(F)cccc1F` [Q-VD-OPh, (3S)-5-(2,6-difluorophenoxy)-3-[[(2S)-3-methyl-2-(quinoline-2-carbonylamino)butanoyl]amino]-4-oxopentanoic acid] here?
A: effectively preserved CD45 biomarker expression

Q: What about the “apoptosis inhibition in neutrophils” value (neutrophils [1]; 5 μM, IMDM+20% FBS, ambient storage up to 96 h) of the same molecule?
A: highly effective at apoptosis inhibition

Q: And the “stability of treated neutrophils under ambient storage” value (neutrophils [1]; ambient storage conditions)?
A: 72 to 96 h

Q: And the “migratory response to fMLP” value (neutrophils [2]; after 72 h ambient storage, vs freshly isolated neutrophils)?
A: comparable to that of the freshly isolated neutrophils; also recorded: nearly indistinguishable from the migratory response of the freshly isolated neutrophils

Q: And the “migratory speed toward fMLP gradient” value (neutrophils [2]; after ambient storage, vs fresh neutrophils)?
A: identical to the fresh neutrophils; also recorded: maintained comparable speed to freshly isolated neutrophils

Q: With `CCCCS(=O)(=O)N[C@@H](Cc1ccc(OCCCCC2CCNCC2)cc1)C(=O)O` [Tirofiban] as the molecule, how does the “platelet activation (PAC-1, CD62/p-selectin) of cold treated platelets” value (platelets) read?
A: minimally activated

Q: With `CCCCCCCCCCCCCC(=O)O[C@@H]1[C@@H](C)[C@@]2(O)[C@@H](C=C(CO)C[C@]3(O)C(=O)C(C)=C[C@@H]23)[C@@H]2C(C)(C)[C@]12OC(C)=O` [phorbol myristate acetate] as the molecule, how does the neutrophil elastase level (neutrophil elastase) read?
A: 81.4±64.4 mU/mL
